Measurements as given in ChEMBL document CHEMBL4602640, “Licochalcone A suppresses the proliferation of sarcoma HT-1080 cells, as a selective R132C mutant IDH1 inhibitor” (Bioorg Med Chem Lett, 2020).
Calls of active or inactive are those of the source. The rule behind the calls is not given here.

Columns and labels:
HT-1080 [1] = assay: Reduction in ACO1 […] expression in human HT1080 cells by RNA-Seq data analysis; assay type: functional, cell-based
Homo sapiens = species on record: Homo sapiens; assay: Ratio of inhibition of IDH1 R132C mutant (unknown origin) at 30 uM to inhibition of IDH1 (unknown origin) at 30 uM by enzymatic assay
HT-1080 [2] = assay: Induction of cell cycle arrest in human HT1080 cells assessed accumulation at G2 phase at 20 uM incubated for 24 hrs by flow cytometric analysis (reference value: 15.64%); assay type: functional
HT-1080 [3] = assay: Reduction in CDK2 protein expression in human HT1080 cells incubated for 48 hrs by Western blot analysis; assay type: functional, cell-based
HT-1080 [4] = assay: Induction of cell cycle arrest in human HT1080 cells assessed accumulation at G1 phase at 10 uM incubated for 24 hrs by flow cytometric analysis (reference value: 31.67%); assay type: functional
HT-1080 [5] = assay: Reduction in CDK1 protein expression in human HT1080 cells incubated for 48 hrs by Western blot analysis; assay type: functional, cell-based
HT-1080 [6] = assay: Induction of cell cycle arrest in human HT1080 cells assessed accumulation at S phase at 5 uM incubated for 24 hrs by flow cytometric analysis (reference value: 52.69%); assay type: functional
HT-1080 [7] = assay: Induction of apoptosis in human HT1080 cells assessed as viable cells at 20 uM incubated for 48 hrs by flow cytometric analysis (reference value: 95.9%); assay type: functional; details: HT-1080, 48 h, read-out: Activity
[8] = test system: Isocitrate dehydrogenase [NADP] cytoplasmic (Homo sapiens), O75874 [R132C]; assay: Binding affinity to IDH1 R132C mutant (unknown origin) by mass spectrometry
HT-1080 [9] = assay: Induction of apoptosis in human HT1080 cells assessed as late apoptotic cells at 5 uM incubated for 48 hrs by flow cytometric analysis (reference value: 2.48%); assay type: functional
HT-1080 [10] = assay: Reduction in CDK1 mRNA level in human HT1080 cells incubated for 48 hrs by qRT-PCR analysis; assay type: functional, cell-based
[11] = test system: Isocitrate dehydrogenase [NADP] cytoplasmic (Homo sapiens), O75874 [R132H]; assay: Binding affinity to IDH1 R132H mutant (unknown origin) by mass spectrometry
HT-1080 [12] = assay: Induction of apoptosis in human HT1080 cells assessed as viable cells at 5 uM incubated for 48 hrs by flow cytometric analysis (reference value: 95.9%); assay type: functional; details: HT-1080, 48 h, read-out: Activity
[13] = target: T1, Isocitrate dehydrogenase [NADP] cytoplasmic (Homo sapiens, UniProt O75874, R132H); assay: Binding affinity to IDH1 R132H mutant (unknown origin) by surface plasmon resonance assay
HT-1080 [14] = assay: Induction of apoptosis in human HT1080 cells assessed as necrotic cells at 5 uM incubated for 48 hrs by flow cytometric analysis (reference value: 0.95%); assay type: functional
HT-1080 [15] = assay: Reduction in 2 HG level in human HT1080 cells harboring IDH1-R132C mutation incubated for 48 hrs by LC-MS analysis relative to control; assay type: functional
[16] = target: T2, Isocitrate dehydrogenase [NADP] cytoplasmic (Homo sapiens, UniProt O75874); assay: Inhibition of IDH1 (unknown origin) by enzymatic assay
[17] = test system: Isocitrate dehydrogenase [NADP] cytoplasmic (Homo sapiens), O75874 [R132C]; assay: Inhibition of IDH1 R132C mutant (unknown origin) at 30 uM by enzymatic assay
[18] = target: T1, Isocitrate dehydrogenase [NADP] cytoplasmic; assay: Inhibition of IDH1 R132H mutant (unknown origin) by enzymatic assay
HT-1080 [19] = assay: Induction of cell cycle arrest in human HT1080 cells assessed accumulation at G2 phase incubated for 24 hrs by flow cytometric analysis; assay type: functional, cell-based
HT-1080 [20] = assay: Induction of apoptosis in human HT1080 cells assessed as early apoptotic cells at 10 uM incubated for 48 hrs by flow cytometric analysis (reference value: 0.63%); assay type: functional
[21] = target: T2, Isocitrate dehydrogenase [NADP] cytoplasmic; assay: Binding affinity to IDH1 (unknown origin) by surface plasmon resonance assay
HT-1080 [22] = assay: Induction of apoptosis in human HT1080 cells assessed as necrotic cells at 20 uM incubated for 48 hrs by flow cytometric analysis (reference value: 0.95%); assay type: functional
HT-1080 [23] = assay: Induction of cell cycle arrest in human HT1080 cells assessed accumulation at S phase at 20 uM incubated for 24 hrs by flow cytometric analysis (reference value: 52.69%); assay type: functional
[24] = target: T3, Isocitrate dehydrogenase [NADP] cytoplasmic (Homo sapiens, UniProt O75874, R132C); assay: Binding affinity to IDH1 R132C mutant (unknown origin) by surface plasmon resonance assay
HT-1080 [25] = assay: Induction of cell cycle arrest in human HT1080 cells assessed accumulation at S phase at 10 uM incubated for 24 hrs by flow cytometric analysis (reference value: 52.69%); assay type: functional
[26] = target: T2, Isocitrate dehydrogenase [NADP] cytoplasmic; assay: Inhibition of IDH1 (unknown origin) at 30 uM by enzymatic assay
HT-1080 [27] = assay: Induction of cell cycle arrest in human HT1080 cells assessed accumulation at G1 phase at 20 uM incubated for 24 hrs by flow cytometric analysis (reference value: 31.67%); assay type: functional
HT-1080 [28] = assay: Induction of apoptosis in human HT1080 cells assessed as late apoptotic cells at 10 uM incubated for 48 hrs by flow cytometric analysis (reference value: 2.48%); assay type: functional
HT-1080 [29] = assay: Induction of cell cycle arrest in human HT1080 cells assessed accumulation at G1 phase at 5 uM incubated for 24 hrs by flow cytometric analysis (reference value: 31.67%); assay type: functional
[30] = target: T3, Isocitrate dehydrogenase [NADP] cytoplasmic; assay: Inhibition of IDH1 R132C mutant (unknown origin) by enzymatic assay
HT-1080 [31] = assay: Antiproliferative activity against human HT1080 cells harboring IDH1-R132C mutation incubated for 48 hrs; assay type: functional, cell-based
HT-1080 [32] = assay: Reduction in CDK2 mRNA level in human HT1080 cells incubated for 48 hrs by qRT-PCR analysis; assay type: functional, cell-based
HT-1080 [33] = assay: Induction of apoptosis in human HT1080 cells assessed as necrotic cells at 10 uM incubated for 48 hrs by flow cytometric analysis (reference value: 0.95%); assay type: functional
[34] = Cytotoxicity against human RCTEC incubated for 48 hrs
HT-1080 [35] = assay: Induction of cell cycle arrest in human HT1080 cells assessed accumulation at G2 phase at 5 uM incubated for 24 hrs by flow cytometric analysis (reference value: 15.64%); assay type: functional
HT-1080 [36] = assay: Reduction in PDHB […] expression in human HT1080 cells by RNA-Seq data analysis; assay type: functional, cell-based
HT-1080 [37] = assay: Induction of apoptosis in human HT1080 cells assessed as early apoptotic cells at 5 uM incubated for 48 hrs by flow cytometric analysis (reference value: 0.63%); assay type: functional
HT-1080 [38] = assay: Induction of apoptosis in human HT1080 cells assessed as early apoptotic cells at 20 uM incubated for 48 hrs by flow cytometric analysis (reference value: 0.63%); assay type: functional
U-87 MG = assay: Cytotoxicity against human U87MG cells harboring wild type IDH1 incubated for 48 hrs; assay type: functional, cell-based, U-87MG ATCC
HT-1080 [39] = assay: Induction of apoptosis in human HT1080 cells assessed as late apoptotic cells at 20 uM incubated for 48 hrs by flow cytometric analysis (reference value: 2.48%); assay type: functional
HT-1080 [40] = assay: Induction of cell cycle arrest in human HT1080 cells assessed accumulation at G2 phase at 10 uM incubated for 24 hrs by flow cytometric analysis (reference value: 15.64%); assay type: functional
HT-1080 [41] = assay: Induction of apoptosis in human HT1080 cells assessed as viable cells at 10 uM incubated for 48 hrs by flow cytometric analysis (reference value: 95.9%); assay type: functional; details: HT-1080, 48 h, read-out: Activity

T2 sequence (O75874 whole entry): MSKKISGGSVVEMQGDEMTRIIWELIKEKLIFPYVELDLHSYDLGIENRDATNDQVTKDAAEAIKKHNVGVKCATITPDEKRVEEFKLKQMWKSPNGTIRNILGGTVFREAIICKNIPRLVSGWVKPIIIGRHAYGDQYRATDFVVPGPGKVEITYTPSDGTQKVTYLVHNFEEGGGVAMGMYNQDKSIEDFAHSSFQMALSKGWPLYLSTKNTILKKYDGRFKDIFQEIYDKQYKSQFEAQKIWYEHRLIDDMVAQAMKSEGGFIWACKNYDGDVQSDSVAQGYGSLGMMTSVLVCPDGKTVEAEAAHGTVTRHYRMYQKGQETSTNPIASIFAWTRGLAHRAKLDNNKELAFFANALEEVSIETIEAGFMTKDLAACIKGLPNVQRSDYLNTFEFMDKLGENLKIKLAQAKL
Chain of Isocitrate dehydrogenase [NADP] cytoplasmic (Homo sapiens), O75874 [R132C] (O75874 whole entry R132C): as the sequence (O75874 whole entry) above, with R132C counted along it
T1 sequence (O75874 2-414 R132H limits assumed): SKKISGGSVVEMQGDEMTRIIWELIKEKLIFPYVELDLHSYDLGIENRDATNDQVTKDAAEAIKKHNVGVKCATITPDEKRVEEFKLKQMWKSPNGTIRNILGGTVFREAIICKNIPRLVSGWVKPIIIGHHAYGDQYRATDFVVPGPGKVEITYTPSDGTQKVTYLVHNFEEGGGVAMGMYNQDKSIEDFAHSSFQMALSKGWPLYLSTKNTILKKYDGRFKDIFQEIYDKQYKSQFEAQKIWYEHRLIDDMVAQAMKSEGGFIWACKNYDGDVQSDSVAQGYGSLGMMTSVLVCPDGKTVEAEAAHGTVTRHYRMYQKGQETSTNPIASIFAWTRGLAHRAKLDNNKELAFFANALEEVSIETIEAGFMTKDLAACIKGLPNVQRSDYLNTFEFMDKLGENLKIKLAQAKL
T3 sequence (O75874 2-414 R132C limits assumed): as the sequence (O75874 2-414 R132H limits assumed) above, with H131C counted along it
Chain of Isocitrate dehydrogenase [NADP] cytoplasmic (Homo sapiens), O75874 [R132H] (O75874 whole entry R132H): as the sequence (O75874 whole entry) above, with R132H counted along it

- Ratio (Homo sapiens): 3
- Activity [8]: Active
- Activity [11]: inactive
- Kd [13]: 12.8 µM
- IC50 [16]: > 100 µM
- inhibition [17]: Active
- IC50 [18]: 76.9 µM
- Kd [21]: > 50 µM
- Kd [24]: 2810 nM
- inhibition [26]: inactive
- IC50 [30]: 5.18 µM
- IC50 (HT-1080 [31]; HT-1080, 48 h): 10.8 µM
SMILES: C=CC(C)(C)c1cc(/C=C/C(=O)c2ccc(O)cc2)c(OC)cc1O [LICOAGROCHACONE A]
- inhibition (HT-1080 [1]): Dose-dependent effect
- Activity (HT-1080 [2]): 33.95%
- inhibition (HT-1080 [3]): Dose-dependent effect
- Activity (HT-1080 [4]): 21.99%
- inhibition (HT-1080 [5]): Dose-dependent effect
- Activity (HT-1080 [6]): 43.13%
- viability at 20 µM (HT-1080 [7]): 42%
- Activity (HT-1080 [9]): 15.2%
- inhibition (HT-1080 [10]): Dose-dependent effect
- viability at 5 µM (HT-1080 [12]): 80.5%
- Activity (HT-1080 [14]): 3.13%
- inhibition (HT-1080 [15]): Dose-dependent effect
- inhibition (INH) (HT-1080 [15]): >50%
- Activity (HT-1080 [19]): Dose-dependent effect
- Activity (HT-1080 [20]): 4.97%
- Activity (HT-1080 [22]): 2.79%
- Activity (HT-1080 [23]): 41.29%
- Activity (HT-1080 [25]): 45.83%
- Activity (HT-1080 [27]): 24.76%
- Activity (HT-1080 [28]): 26.6%
- Activity (HT-1080 [29]): 35.93%
- Activity (HT-1080 [31]): Dose-dependent effect
- inhibition (HT-1080 [32]): Dose-dependent effect
- Activity (HT-1080 [33]): 4.4%
- IC50 [34]: > 50 µM
- Activity (HT-1080 [35]): 20.94%
- inhibition (HT-1080 [36]): Dose-dependent effect
- Activity (HT-1080 [37]): 1.26%
- Activity (HT-1080 [38]): 0.82%
- IC50 (U-87 MG): > 50 µM
- Activity (HT-1080 [39]): 54.4%
- Activity (HT-1080 [40]): 24.18%
- viability at 10 µM (HT-1080 [41]): 64.1%
